Results as given in US9603861B2, “Compositions and methods for treating hyperproliferative epidermal diseases” (DERMIPSOR LTD., priority 2005, dated 2017).

Key:
HaCat cells [1] = assay: Proliferation assay (MTT method), HaCat cells; assay type: cell-based, human
Procedure: The antiproliferative activity of calcipotriol and nicotinamide was tested in two model systems: the first a spontaneously immortalized human keratinocyte, which is referred to herein as “HaCat cells” or “HaCat keratinocytes”, and serves as a model for highly proliferative epidermis, such as, but not limited to, psoriatic epidermis (Okenfels et al, 1998), and as a model for effects of external modulators of epidermal differentiation (Paramio, et al., 1997). The second system includes rapidly proliferating human keratinocytes, which are referred to herein as “cultured human epidermal keratinocytes”, and serves as a model for detecting antiproliferative agents in the treatment of psoriasis (Nikoloff, et al., 1988). These models have been used, according to the present invention, to test the antiproliferative efficacy of agents described herein. […] The viability and/or proliferation of HaCat cells and Cultured Human Epidermal Keratinocytes, following treatment with various concentrations of calcipotriol, nicotinamide (NA) or a combination thereof was determined by the MTT assay, according manufacturer in 96-well microtiter plates.

[2] = test system: human primary keratinocytes; assay: Proliferation assay (MTT method), human primary keratinocytes; assay type: cell-based; details: NA in pharmacological concentrations, dose dependent
Procedure: The antiproliferative activity of calcipotriol and nicotinamide was tested in two model systems: the first a spontaneously immortalized human keratinocyte, which is referred to herein as “HaCat cells” or “HaCat keratinocytes”, and serves as a model for highly proliferative epidermis, such as, but not limited to, psoriatic epidermis (Okenfels et al, 1998), and as a model for effects of external modulators of epidermal differentiation (Paramio, et al., 1997). The second system includes rapidly proliferating human keratinocytes, which are referred to herein as “cultured human epidermal keratinocytes”, and serves as a model for detecting antiproliferative agents in the treatment of psoriasis (Nikoloff, et al., 1988). Human Epidermal Keratinocytes (passages 3-6), obtained from normal face-lift surgery, were cultivated in serum-free KGM®-2 BulletKit® (Clonetics, USA) medium with low calcium for accelerated proliferation of the keratinocytes. The viability and/or proliferation of HaCat cells and Cultured Human Epidermal Keratinocytes, following treatment with various concentrations of calcipotriol, nicotinamide (NA) or a combination thereof was determined by the MTT assay, according manufacturer in 96-well microtiter plates.

A431 = assay: Proliferation assay, A431 cells; assay type: cell-based; details: NA in pharmacological concentrations, dose dependent
Procedure: (§1) Certain in vitro assays based on keratinocyte cell culture were performed to test NA and the combination of NA and calcipotriol. The experimental design has been described in PCT Patent Publication WO 01/51051, of some of the inventors of the present application.

KM12 = assay: Proliferation assay, KM12 cells; assay type: cell-based; details: NA in pharmacological concentrations, dose dependent
HaCat cells [3] = assay: Growth curve and mitotic activity; assay type: cell-based, human; details: 10 mM NA
Procedure: Growth curve and mitotic activity: 2×10^4 cells per ml were seeded in 24-well tissue culture plates and incubated without or with 10 mM NA. The cells were detached by trypsinization at different times (48 h-168 h) following passage and counted using a haemocytometer in tetra-aliquots. For estimation of mitotic activity the cells were cultured on glass coverslips into Petri dishes. After 72 h incubation with or without 10 mM NA the cells were fixed with methanol, stained with Giemsa stain and analyzed by light microscopy. Frequency of mitotic cells at different stages of mitotic cycle (pro-, meta-, ana- and telophases) was calculated. At least 1000 cells were counted for each experiment.

HaCat cells [4] = assay: Cell cycle parameters by flow cytometry; assay type: cell-based, human; details: NA 72 h, dose dependent
Procedure: Determination of apoptosis and cell cycle parameters was performed by flow cytometry. Cells were seeded in 25 cm2 tissue culture flasks and cultured for 48 h, and then they were exposed to 5, 10 and 20 mM NA for 72 h. Flow cytometry was performed on nuclei prepared with a detergent-trypsin method and stained with propidium iodide (Vindelov et al, 1983).

HaCat cells [5] = assay: Apoptosis and necrosis by fluorescence microscopy; assay type: cell-based, human
Procedure: Estimation of apoptosis and necrosis was analyzed using fluorescence microscopy as previously described (Harel et al, 2002). Briefly, HaCat cells were cultured on glass slides and exposed to various concentration of NA (5, 10, 20 and 50 mM). After 72 h the cells were stained with the DNA binding dyes Hoechst 33342 and propidium iodide. Viable cells were identified by intact nuclei and their blue fluorescence, necrotic cells by intact nuclei and red fluorescence, and cells in early or late phase of apoptosis, by fragmented nuclei and blue or red fluorescence. At least one thousand cells were counted for each treatment.

A431 cells = assay: Apoptosis in A431 cells; assay type: cell-based
PARP = assay: Immunoblot analysis of PARP expression; assay type: cell-based, human
Procedure: Immunoblot analysis of PARP expression: immune complexes were detected by incubation with secondary anti-mouse alkaline phosphatase conjugated antibody AP124A (dilution 1:5000) followed by developing with BCIP/NBT color substrate.

HaCat cells [6] = assay: Cornified envelope formation; assay type: cell-based, human
Procedure: (§2) Cornified Envelope Formation: Late differentiation processes in HaCat cells treated with NA and or calcipotriol were measured by determining the cornified cell envelope formation, according to the procedures described in Sun and Green (1976) and PCT publication WO 01/51051.

keratin 10 (K10) = assay: Indirect immunofluorescence, keratin 10 expression; assay type: cell-based, human; details: 72 hours
Procedure: (§3) Effects of NA and or calcipotriol on early (keratin k10 expression) and late (involucrin expression) differentiation processes in HaCat cells were estimated by indirect immunofluorescence.
In brief, 2×10^4 cells/ml were seeded on glass coverslips into Petri dishes with 0, 5, 10 and 20 mM NA or calcipotriol. After 72 hours of incubation, cells on the glass coverslips were washed with PBS, fixed by ice-cold mixture of methanol:acetone (1:1) and incubated at −20° C. for 10 minutes. Fixed cells were washed in PBS and incubated with blocking buffer (1% BSA in PBS) for 10 minutes, to minimize non-specific absorption of the primary antibodies to the coverslips. Thereafter, the cells were incubated for 1 hour with primary monoclonal antibodies (Keratin 10 expression was detected by antihuman mouse monoclonal antibody, at 1/50 final dilution; Involucrin expression was detected by antihuman involucrin mouse monoclonal antibody at 1/100 final dilution), at 37° C. hour in a humidified chamber. Exhaustive, PBS-washed cells were incubated with fluorophor conjugated goat anti-mouse IgG, at 1/50 final dilution, for 30 minutes at room temperature. The slides were viewed under a Zeiss microscope (Axioskop-2) equipped with epifluorescence optics and the appropriate filters to avoid cross-channel contamination. […] On each slide, at least 500-1000 cells were scored.

involucrin = assay: Indirect immunofluorescence, involucrin expression; assay type: cell-based, human
Procedure: as §3
In brief, 2×10^4 cells/ml were seeded on glass coverslips into Petri dishes with 0, 5, 10 and 20 mM NA or calcipotriol. After 72 hours of incubation, cells on the glass coverslips were washed with PBS, fixed by ice-cold mixture of methanol:acetone (1:1) and incubated at −20° C. for 10 minutes. Fixed cells were washed in PBS and incubated with blocking buffer (1% BSA in PBS) for 10 minutes, to minimize non-specific absorption of the primary antibodies to the coverslips. Thereafter, the cells were incubated for 1 hour with primary monoclonal antibodies (Keratin 10 expression was detected by antihuman mouse monoclonal antibody, at 1/50 final dilution; Involucrin expression was detected by antihuman involucrin mouse monoclonal antibody at 1/100 final dilution), at 37° C. hour in a humidified chamber. Exhaustive, PBS-washed cells were incubated with fluorophor conjugated goat anti-mouse IgG, at 1/50 final dilution, for 30 minutes at room temperature. The slides were viewed under a Zeiss microscope (Axioskop-2) equipped with epifluorescence optics and the appropriate filters to avoid cross-channel contamination. The level of keratin 10 and involucrin expression was estimated by counting the positive cells relative to the total cell number. On each slide, at least 500-1000 cells were scored.

HaCat keratinocytes = assay: Long-term NA treatment of HaCat keratinocytes, oxidative stress; assay type: cell-based, human; details: long-term treatment with NA
From the text: Other long-term cultures of cells with other agents are similarly obtained by cultivating HaCat cells, for a prolonged period of time, in medium supplemented with combinations of NA, vitamin D and derivatives thereof and vitamin A.

[7] = test system: benign and malignant epidermal cells; assay: Differentiation markers in benign and malignant epidermal cells; assay type: cell-based
Procedure: as §1, §2, §3

[8] = Skin permeation, Franz diffusion cell; assay type: in vitro ADME, porcine; details: formulations CP and CPNA, 12 hours; QL 1.3 ng/mL
Procedure: Three formulations were prepared. The first comprised Nicotinamide (NA, 2.1 mg/g), the second Calcipotriol (CP, 50 μg/g) and the third, a combination of Calcipotriol (50 μg/g) and Nicotinamide (2.1 mg/g)(CPNA).
The Franz cell assembly and porcine ear skin are used for measuring permeation of drugs through the skin in vitro from various systems and dosage forms (Dick et al. 1992; Simon, et al. 2000; Touitou et al. 1998; Chien 1992). The experiments were carried out in vitro using the Franz diffusion cell assembly and full-thickness skin from porcine ear. The diffusion cells are made from an inert material and the assembly allows for good receiver-fluid mixture and temperature control.
Porcine ear skin was excised from the outer part of the ear and separated from the underlying cartilage. The skin was stored frozen at −20° C. until use, always less than one week. […] A quantity of 100 mg test formulation was placed on 1.77 cm^2 skin in the donor compartment. […]
The experiments were run non-occluded for 12 hours. […] The samples were analyzed for Nicotinamide and Calcipotriol concentrations by HPLC as further described. […]
HPLC assays: The HPLC assays of nicotinamide and calcipotriol were carried as follows: Nicotinamide was analyzed in a Waters Alliance 2795 LC and Quattro Micro™ HPL chromotograph LC-MS system with Hypersil BDS C18, 3 μm, 150×2.1 mm (CN 28103-152130, batch #4796) column. […]

Structure (SMILES): NC(=O)c1cccnc1 [NA, Nicotinamide]
- rate of HaCat cell proliferation (HaCat cells [1]; 0.5-5 mM NA, 72 h): did not change the rate of HaCat cell proliferation
- Proliferation of HaCat keratinocytes (HaCat cells [1]; NA in pharmacological concentrations, dose dependent): significantly inhibited
- Proliferation of human primary keratinocytes [2]: significantly inhibited
- Proliferation of A431 (A431): significantly inhibited
- Proliferation of KM12 (KM12): significantly inhibited
- growth curve (HaCat cells [3]; 48-168 hours): growth retardation
- percentage of mitotic cells, times lower compared to untreated (HaCat cells [3]; 72 h): about 2.5 times
- frequency of cells in G0-G1, S and G2-M phases (HaCat cells [4]): reduction of the cell number in S and G2-M-phases
- apoptotic death in HaCat cells (summary statement) (HaCat cells [5]): does not induce apoptotic death
- apoptogenic effect (HaCat cells [5]; 20 mM and 50 mM NA, 72 h): significant apoptogenic effect
- cells in stage of early apoptosis (HaCat cells [5]; 50 mM NA): 9%
- effected cells with signs of late apoptosis (HaCat cells [5]; 50 mM NA): about 91%
- necrotic cell death (HaCat cells [5]; all tested NA concentrations (5-50 mM)): no tested concentration of NA induced necrotic cell death
- apoptotic death in A431 cells (A431 cells): does not induce apoptotic death
- PARP expression (Western blot) (PARP; 10 mM or 20 mM NA): express a basal level of undegraded 116 kDa PARP full protein
- PARP expression (Western blot) (PARP; 50 mM NA, 85 kDa cleavage fragment appears): induced degradation of PARP
- frequency of basal and cornified envelope cells (HaCat cells [6]; 5 mM or 10 mM NA): no statistically significant effect
- cornified envelope cell formation (HaCat cells [6]; 15 mM NA): increased
- level of basal cells (HaCat cells [6]; 15 mM NA, untreated 58.6±10.24%): 25.6±5.76%
- frequency of basal cells, of total cell population (HaCat cells [6]; 20 mM NA): about 15%
- frequency of envelope cornified cells, of total cell population (HaCat cells [6]; 20 mM NA, untreated 4.4±2.78%): about 15%
- K10 expression compared to control cells (keratin 10 (K10); 5 mM to 10 mM NA): no effect
- stimulation of K10 expression (keratin 10 (K10); 20 mM NA): 3 fold
- increase of involucrin expression vs control (involucrin; 5 mM NA): about 2 times
- level of involucrin expression (positive cells) (involucrin; 5 mM NA, control 6.0±1.22%): 11.2±1.68%
- frequency of involucrin positive cells (involucrin; 10 mM NA): 11.0±1.13%
- frequency of involucrin positive cells (involucrin; 20 mM NA): 15.1±3.93%
- anti-oxidative enzymes (glutathione peroxidase and catalase) (HaCat keratinocytes): high levels of anti-oxidative enzymes
- protection to oxidative stress (hydrogen peroxide) (HaCat keratinocytes): high level of protection to oxidative stress
- differentiation processes: K10, Involucrin, enveloped cornified cell formation markers [7]: promotes the differentiation processes

Structure (SMILES): C=C1/C(=C\C=C2/CCC[C@]3(C)[C@@H]([C@H](C)/C=C/[C@@H](O)C4CC4)CC[C@@H]23)C[C@@H](O)C[C@@H]1O [calcipotriol, Calcipotriol]
- calcipotriol in the receiver compartment [8]: No calcipotriol was detected
